This is an account of results in US20240374724A1, “ENPP1 INHIBITORS AND IMMUNE CELLS EXPRESSING CHIMERIC ANTIGEN RECEPTORS” (Angarus Therapeutics, Inc., priority 2021, published 2024).

One experiment deals with IFN-γ secretion. Nature of the experiment: IFN-γ ELISA / ELISpot of splenocytes from B16F10 tumor bearing mice given donor T cells. The experiment is classed as in vivo, C57BL/6 mice. The source says: This example describes the in vitro activation and expansion of donor C57BL/6 pmel-1 splenocytes by INF-γ ELISA and INF-γ Elispot analysis of splenocytes derived from B16F10 melanoma syngeneic tumor model inoculated with Pmel-1 donor splenocytes (T-cells). Briefly, spleens and splenocytes from C57BL-B16F10 tumor bearing mice treated with or without an ENPP1 inhibitor and donor T cells are harvested and purified as described in Example 8. To test for cytokine secretion, the isolated splenocytes are then plated and co-cultured with gp100 peptide on a plate of an ELISpot kit and IFN-γ secretion is detected. The number of spots is counted for each well and summarized for each group. Additionally, or alternatively, IFN-γ secretion is detected with a IFN-γ ELISA test.

A further experiment has as its system B16F10 melanoma. Nature of the experiment: B16F10 melanoma with pmel-1 donor splenocytes (adoptive T cell therapy): tumor size and tumor flow cytometry. The experiment is classed as in vivo, C57BL/6 mice. The source says: For the study, 0.2×10^6 B16F10 melanoma cells/mouse were implanted on day −8 on flanks of C57BL/6 female mice. On day 0, when tumor size had reached about 80 mm3, mice were randomized into 3 groups with an n=12/group. All mice in the three groups were subjected to whole body irradiation with 5.0 Gy for lymphodepletion. […] gp100 specific donor splenocytes were harvested from C57BL/6 pmel-1 donor mice (The Jackson Laboratory, world wide web.jax.org/strain/005023). Briefly, splenocytes comprising immune cells such as T cells from spleens of 18 pmel-1 female C57BL/6 mice (Jackson labs) were harvested yielding˜90 Million splenocytes. The pmel-1 splenocytes were isolated, the red blood cells lysed, and the remaining splenocytes expanded and activated with IL-2 and gp100 antigen for 4 days in vitro, and administered to the B16 melanoma bearing mice by i.v. On day 7, mice were sacrificed, and tumor, spleen, and blood samples were collected. Tumor size of all three treatment groups were measured on days 0, 2, 5 and 7 (FIGS. 6 and 7). […] After mice were sacrificed, tumor samples were tested for the fraction of several live immune cells (CD45+ cells) in the tumor. Briefly, tumors were harvested, and samples digested with tumor digestion mix and cells collected and washed in FACS buffer. A sample of cells was stained with a live/dead stain (ef780) to test for live cells and enumerated by flow cytometry. […] When staining for intracellular markers, cells were fixed and permeabilized before staining with markers (ki67). For example, cells were stained with markers for MDSC and F4/80 macrophages and enumerated by flow cytometry. […] Samples were also analyzed for the percentage of gp100+, CD8+ T cells actively proliferating (ki67+ cells) that were present in the tumor.
For orientation: Flow cytometry measures light scatter and fluorescence of single cells or particles in a stream.

Another experiment has as its system 4T1-luciferase tumor. Nature of the experiment: 4T1-luciferase tumor model: IR with compound 1, cGAMP and/or anti-CTLA-4; tumor volume and survival. The experiment is classed as in vivo, Balb/c mice. The conditions noted are these: 20 Gy IR + 10 μg cGAMP intratumoral alone.
The test system of another experiment is 4T1 tumor model. Nature of the experiment: Tumor-associated dendritic cells in mouse 4T1 tumor model with or without IR (FACS). The experiment is classed as in vivo, Balb/c mice. The conditions noted are these: intratumoral 100 μL of 1 mM. The protocol:
Anaesthetized animals were shielded with a 3.2 mm lead shield with a 15×20 mm aperture where the tumor was placed. […] On the next day, the tumor was extracted and incubated in RPMI+10% FBS with 20 μg/mL DNase I type IV (Sigma-Aldrich) and 1 mg/mL Collagenase from Clostridium histolyticum (Sigma-Aldrich) at 37° C. for 30 min. […] Cells were stained with Live/Dead fixable near-IR dead cell staining kit (Thermo Fisher Scientific), Fc-blocked for 10 min using TruStain fcX and subsequently antibody-stained with CD11c, CD45, and I-A/I-E (all Biolegend). Cells were analyzed using an SH800S cell sorter (Sony) or an LSR II (BD Biosciences).

Experiment [1] deals with T1, purified recombinant mouse ENPP1 (Mus musculus, UniProt P06802).
T1 sequence (P06802 1-906): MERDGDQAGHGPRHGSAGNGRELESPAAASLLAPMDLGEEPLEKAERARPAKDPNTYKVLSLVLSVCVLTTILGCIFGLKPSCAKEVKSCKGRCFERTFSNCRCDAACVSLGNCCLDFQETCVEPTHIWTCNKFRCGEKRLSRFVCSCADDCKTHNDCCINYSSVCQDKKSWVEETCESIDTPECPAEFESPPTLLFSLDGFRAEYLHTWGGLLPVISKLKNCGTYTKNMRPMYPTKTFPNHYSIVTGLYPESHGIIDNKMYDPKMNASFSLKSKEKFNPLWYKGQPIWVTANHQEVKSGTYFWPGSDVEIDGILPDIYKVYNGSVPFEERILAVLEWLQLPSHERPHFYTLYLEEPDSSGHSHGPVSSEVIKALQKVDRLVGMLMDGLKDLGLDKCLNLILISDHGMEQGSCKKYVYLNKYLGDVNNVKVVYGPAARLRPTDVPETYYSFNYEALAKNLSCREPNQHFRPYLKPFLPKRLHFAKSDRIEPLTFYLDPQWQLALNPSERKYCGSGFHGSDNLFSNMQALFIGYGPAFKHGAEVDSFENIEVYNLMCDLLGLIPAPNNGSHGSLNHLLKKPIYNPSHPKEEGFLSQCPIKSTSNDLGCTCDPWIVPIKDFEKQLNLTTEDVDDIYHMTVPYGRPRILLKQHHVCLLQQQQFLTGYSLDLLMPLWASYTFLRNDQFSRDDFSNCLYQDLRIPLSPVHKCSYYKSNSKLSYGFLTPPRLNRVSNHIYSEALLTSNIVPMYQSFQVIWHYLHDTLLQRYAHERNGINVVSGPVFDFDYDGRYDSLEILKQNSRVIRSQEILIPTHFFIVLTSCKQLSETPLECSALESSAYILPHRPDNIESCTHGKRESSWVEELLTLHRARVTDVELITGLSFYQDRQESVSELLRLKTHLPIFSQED
Nature of the experiment: ENPP1 activity assay using TMP-pNP as a substrate. The class given is biochemical. The conditions noted are these: TMP-pNP 2 μM, mouse ENPP1 0.5 nM, pH 7.5. The protocol:
Selected compounds of Table 1, Table 2, Table 3, Table 4, Table 5, or Table 6 and other derivatives were prepared and assessed in an ENPP1 activity assay using thymidine monophosphate paranitrophenol (TMP-pNP) as a substrate. Enzyme reactions were prepared with TMP-pNP (2 μM), 5-fold dilutions of ENPP1 inhibitor, and purified recombinant mouse ENPP1 (0.5 nM) in 100 mM Tris, 150 mM NaCl, 2 mM CaCl2, 200 μM ZnCl2, pH 7.5 at room temperature. Reaction progress was monitored by measuring absorbance at 400 nm of paranitrophenolate produced by the reaction for 20 minutes.

[2] abbreviates: 50 mg/kg plus donor splenocytes.

Protocol for CD14+ IFNB1 expression: Primary human peripheral blood mononucleocyte cells (PBMCs) were isolated by subjecting enriched buffy coat from whole blood to a Percoll density gradient. CD14^+ monocytes were isolated using CD14^+ MicroBeads (Miltenyi). CD14^+ monocyctes were cultured in RPMI supplemented with 2% human serum and 100 U/mL penicillin-streptomycin. […] 24-26 hours following supernatant transfer, total RNA was extracted using Trizol (Thermo Fisher Scientific) and reverse transcribed with Maxima H Minus Reverse Transcriptase (Thermo Fisher Scientific). Real-time RT-PCR was performed in duplicate with AccuPower 2×Greenstar qPCR Master Mix (Bioneer) on a 7900HT Fast Real-Time PCR System (Applied Biosystems). Data were normalized to CD14 expression for each sample. Fold induction was calculated using ΔΔCt.
Supernatant from these cells was transferred to primary CD14^+ human PBMCs. IFNB1 mRNA levels were normalized to CD14 and the fold induction was calculated relative to untreated CD14^+ cells.

As to `COc1cccc2c(N3CCC(CCP(=O)(O)O)CC3)ncnc12` [Compound 76], the “IFN-γ secretion compared to PBS with donor T cells” value in the experiment with IFN-γ secretion (5 mg/kg plus donor T cells) and with IFN-γ secretion (50 mg/kg plus donor T cells) was “elevated” each time. Moreover, the “tumor size at day 7 compared to PBS with donor cells” value with B16F10 melanoma (5 mg/kg and donor T cells) is recorded as “smaller reduction in tumor size”; in the experiment with B16F10 melanoma (50 mg/kg and donor T cells), “marked reduction in tumor size”. In addition, the “percentage of F4/80+ macrophages in tumors compared to PBS with donor T cells” value in the experiment on B16F10 melanoma (5 mg/kg plus donor T cells) and with B16F10 melanoma (50 mg/kg plus donor T cells) was “higher” throughout. Moreover, the “percentage of MDSC macrophages in tumors compared to PBS with donor T cells” value in the experiment on B16F10 melanoma (5 mg/kg plus donor T cells) and with B16F10 melanoma (50 mg/kg plus donor T cells) was “lower” in each case. In addition, the “percentage of live cells in tumors compared to PBS with donor T cells” value in the experiment with B16F10 melanoma (5 mg/kg plus donor T cells) and in the experiment with B16F10 melanoma (50 mg/kg plus donor T cells) was “higher” each time. The “percentage of Thy1.1+ (pmel-1 derived), gp100+, CD8+ donor T cells in tumors compared to PBS with donor splenocytes” value with B16F10 melanoma (5 mg/kg plus donor splenocytes) and in the experiment with B16F10 melanoma (setting [2]) was “higher” each time. The “percentage of Thy1.2+ host cells in tumors” value with B16F10 melanoma (5 mg/kg plus donor splenocytes) and in the experiment with B16F10 melanoma (setting [2]) was “declined reciprocally” throughout. Further, the “percentage of gp100+, CD8+, ki67+ T cells in tumors compared to PBS with donor splenocytes” value with B16F10 melanoma (5 mg/kg plus donor splenocytes) and with B16F10 melanoma (setting [2]) was “higher” in each case.
In the case of `Nc1nc2c(ncn2[C@@H]2O[C@@H]3COP(=O)(O)O[C@H]4[C@@H](O)[C@H](n5cnc6c(N)ncnc65)O[C@@H]4COP(=O)(O)O[C@@H]2[C@@H]3O)c(=O)[nH]1` [cGAMP, cyclic guanosine monophosphate-adenosine monophosphate], the “effect over IR treatment (tumor)” value in the experiment with 4T1-luciferase tumor is given as “no effect”.
On to `COc1cc2ncnc(N3CCC(CCP(=O)(O)O)CC3)c2cc1OC` [compound 1], for which the “tumor-associated leukocyte compositions compared to the PBS control” value in the experiment on 4T1 tumor model (no IR) is recorded as “did not change”. In the experiment with 4T1 tumor model (tumors pretreated with 20 Gy IR), the “tumor associated CD11c+ population” value is “increased”. Moreover, the “extracellular cGAMP levels” value with CD14+ IFNB1 expression (293T cGAS ENPP1low cells transiently overexpressing ENPP1) is reported as “rescued”. Moreover, the “CD14+ IFNB1 expression” value in the experiment on CD14+ IFNB1 expression (supernatant of ENPP1-overexpressing 293T cGAS ENPP1low cells transferred to CD14+ monocytes) is on record as “induced”.
As usually defined, the IC50 is the point on the concentration scale where inhibition reaches its midpoint. Consider `O=P(O)(O)CCC1CCN(c2ncnc3ccccc23)CC1` [compound 25], for which the IC50 in experiment [1] was 0.005 to 0.05 µM.
